Here are results for 34 compounds from a melting point compilation (Tetko et al.; mined from patent text by program, amines drawn as free bases though some values may be those of a salt).

Take `CCCOc1ccccc1-c1nc2ncncc2c(=O)n1N`: the melting point (usually the temperature of the solid-liquid transition) was 261 to 262 °C. `O=C1COC(=O)N1C(c1ccccc1)(c1ccccc1)c1ccccc1` gave a melting point of 216 to 218 °C.

For the compound `O=C(N[C@@H](CS(=O)(=O)c1ccc(Oc2ccccc2)cc1)C(=O)NO)OCc1ccccc1`, the melting point lay in the range of 195 to 202 °C. The result for `FC(F)(F)c1cccc(C(NC2=NCCO2)C(F)(F)F)c1` (centres undefined) reads 129 to 132 °C; that for `COC(=O)c1cc(Cl)cc2c1OC(C)(C)C(=O)N2`, 178 to 179 °C. Consider `CN1CC(CCN2CCC(c3c[nH]c4ccccc34)CC2)C=C2c3cccc4[nH]cc(c34)CC21` (centres undefined), for which the melting point was in the range of 184 to 187 °C.

`CS(=O)(=O)Cc1cccc(CNC(=O)c2nc3scc(COCc4ccc(C(=O)O)cc4)c3c(=O)[nH]2)c1` yielded a melting point of 246 to 248 °C.

For the compound `O=C(O)c1cc(S)cc2c1OCCO2`, the melting point lay in the range of 191 to 192 °C. As for `COc1ccc(Nc2ccc(OCc3ccccc3)cc2)c(CO)c1`, the melting point fell in the range of 100 to 101 °C.

For the compound `Clc1ccc2c(c1)C(c1ccccc1)=NCc1nnc(C(Cl)Cl)n1-2`, the melting point fell in the range of 193 to 196 °C. Take `CN1C(=O)[C@H](NC(=O)COc2ccc(Cl)cc2Cl)N=C(c2ccccc2)c2ccccc21`: the melting point turned out to be 206 °C. On to `CCCCCCn1nc(-c2ccc(C(F)(F)F)cc2)cc1CCC(=O)c1ccc(OCC(=O)O)c(C)c1`, for which the melting point lay within 118 to 123 °C. As for `CCOc1cc(CCCC2OC(=O)NC2=O)ccc1OCc1coc(-c2ccccc2)n1` (centres undefined), the melting point was in the range of 119 to 120 °C. On to `CC1(C)CCC(C)(C)c2cc(-c3cc(-c4ccc(C(=O)O)cc4)ccc3OCCCCCCCCCO)ccc21`, for which the melting point was in the range of 147 to 150 °C. The result for `CON(c1ccc([N+](=O)[O-])cc1C#N)S(=O)(=O)c1ccc(Cl)s1` reads 144 to 146 °C; that for `O=C(CBr)c1ccc(O)cc1`, 115 to 118 °C; that for `NC(=O)N(O)C1C=C(c2cccc(Oc3ccccc3)c2)CC1` (single isomer, unassigned; (+)), 139 to 141 °C.

In turn, `CCCCCCCCc1sc(NC(=O)c2cc3cc(C)cc(C)c3n2Cc2cccc(C(=O)O)c2)nc1-c1cc(OC)c(Cl)cc1OC` yielded a melting point of 195 to 197 °C. Take `O=C(c1ccccc1)N1CCC(c2c[nH]c3cc(F)ccc23)CC1`: the melting point stood at 220 °C. On to `COc1cc(C=O)ccc1OCc1nc(N2CCOCC2)sc1C`, for which the melting point lay in the range of 127 to 128 °C. With `CCOC(=O)c1cc(C(=O)NC)nc(C(=O)NC)c1NC`, the melting point fell in the range of 169 to 170 °C. In turn, `CC(C)(C)Sc1cnn(-c2c(Cl)cc(C(F)(F)F)cc2Cl)c1N` registered a melting point of 129 °C. The compound `O=C1CC2CCc3ccc(F)cc3C2=NN1c1ccc(OCC2CO2)cc1` (centres undefined) registered a melting point of 128 to 130 °C. `Oc1ccc2cc(OCCN3CCC(Cc4ccc(F)cc4)CC3)ccc2c1` had a melting point of 184 to 185 °C.

`O=C1[C@H](CC[C@H](O)c2ccc(F)cc2)[C@@H](c2ccc(OS(=O)(=O)C(F)(F)F)cc2)N1c1ccc(F)cc1`: the melting point came out at 122 °C. On to `C(=C\c1nc2ccccc2s1)/c1cccc(NCCCc2nnn[nH]2)c1`, for which the melting point was 168 to 169 °C.

In turn, `Cc1c(-c2ccccc2)n(-c2ccccc2Cl)c(-c2ccccc2)cc1=S` registered a melting point of 271 to 275 °C. `Oc1ccnc2[nH]cc(-c3ccncn3)c12` displayed a melting point greater than 210 °C. Regarding `CCCc1c(OCCCCCc2c(Cl)ccc(OC)c2OC)ccc(C(=O)OC)c1O`, the melting point lay in the range of 53 to 55 °C. Compound `CNC(=O)C(=NOC)c1ccccc1COc1ncc(C)cc1C(=O)OC(C)C` showed a melting point of 165 to 166 °C. The compound `O=C1c2ccccc2C(=O)N1CCCCC1N=NC(=S)N1` (centres undefined) showed a melting point of 223 to 225 °C.

As to `O=C1Nc2ccc3cn[nH]c3c2C1=O`, the melting point was greater than 300 °C.

Consider `Cc1oc2ccccc2c(=O)c1NC(=O)C(=O)O`, for which the melting point is 208 °C. As for `COc1cc2c(cc1OCc1ccccc1)CCCC(C(=O)O)=C2`, the melting point fell in the range of 163 to 165 °C.
